Assay results as given in patent publication US8546406B2, “Heterocyclic compounds as metap-2 inhibitors” (Merck Patent GmbH, priority 2009, dated 2013).

molecular target: MetAP-2 (Homo sapiens, UniProt P50579); assay: MetAP-2 activity measurement (coupled enzymatic reactions, substrate Met-Arg-Ser, photometric at 450 nm); assay type: biochemical; settings: Inhibition of MetAP-2; read-out: IC50 enzyme
Protocol: The MetAP-2 activity is determined by coupling enzymatic reactions. The tripeptide Met-Arg-Ser (MAS) is employed as substrate. The methionine liberated is firstly converted into Metox and H2O2 by L-aminooxidase (AAO). In the second step, the peroxidase (POD) with the aid of the H2O2 catalyses the oxidation of the leukodye dianisidine to dianisidineox, the increase of which is detected photometrically at 450 nm.
MetAP-2 activity can be recorded continuously as kinetics. The reaction scheme illustrates that one mol of dianisidineox is formed per mol of methionene. The MetAP-2 enzyme activity can therefore be calculated directly as Δ absorption per time unit. Qualification of the MetAP-2 activity (mol of Met/time unit) is possible with the aid of the dianisidineox extinction coefficient. The change in extinction per time unit is depicted graphically and a slope calculation is carried out in the visually linear region of the reaction.

MetAP-2, sequence (P50579 whole entry, species assumed): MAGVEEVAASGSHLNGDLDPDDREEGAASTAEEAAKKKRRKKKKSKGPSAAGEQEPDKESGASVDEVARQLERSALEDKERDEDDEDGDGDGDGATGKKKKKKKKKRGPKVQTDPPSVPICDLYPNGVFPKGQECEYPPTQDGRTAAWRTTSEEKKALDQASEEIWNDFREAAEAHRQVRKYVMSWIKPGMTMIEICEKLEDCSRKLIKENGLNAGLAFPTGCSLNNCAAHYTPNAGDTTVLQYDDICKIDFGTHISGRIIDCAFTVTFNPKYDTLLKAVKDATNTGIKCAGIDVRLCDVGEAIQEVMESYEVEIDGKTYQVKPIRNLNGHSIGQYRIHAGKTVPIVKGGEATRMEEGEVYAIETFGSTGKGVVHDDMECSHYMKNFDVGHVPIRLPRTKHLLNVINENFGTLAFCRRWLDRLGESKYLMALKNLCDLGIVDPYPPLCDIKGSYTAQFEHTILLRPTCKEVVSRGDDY

Row | IC50 [nM] | SMILES
1 | 10 to 1000 | NCC(=O)N1CCc2cccc(OC[C@H]3CCCN3c3ccnc4ncnn34)c2C1 [Compound A37]
2 | 10 to 1000 | COc1cccc(COC[C@H]2CCCN2c2ccnc3ncnn23)c1 [Compound A51]
3 | 10 to 1000 | CC(C)(C)OC(=O)NCC(=O)N1CCc2cccc(OC[C@H]3CCCN3c3ccnc4ncnn34)c2C1 [Compound A31]
4 | 10 to 1000 | NCCCN1CCc2cccc(OC[C@H]3CCCN3c3ccnc4ncnn34)c2C1 [Compound A76]
5 | > 10000 | c1ccc2c(OC[C@H]3CCCN3c3ccnc4nncn34)cccc2c1 [Compound A4, 5-[(R)-2-(naphthalen-1-yloxymethyl)pyrrolidin-1-yl]-[1,2,4]-triazolo[4,3-a]pyrimidine]
6 | 10 to 1000 | NS(=O)(=O)c1ccc(CCNC(=O)c2cc(OC[C@H]3CCCN3c3ccnc4ncnn34)c3ccccc3n2)cc1 [Compound A24]
7 | 10 to 1000 | O=C(OC[C@H]1CCCN1c1ccnc2ncnn12)c1ccc(F)cc1 [Compound A26]
8 | 10 to 1000 | c1ccc2c(OC[C@H]3CCCN3c3ccnc4ncnn34)ccc(CNCCCN3CCOCC3)c2c1 [Compound A21]
9 | 10 to 1000 | N#CCCCCN1CCc2cccc(OC[C@H]3CCCN3c3ccnc4ncnn34)c2C1 [Compound A38]
10 | 1000 to 10000 | O=C(NCCc1ccc(Cl)cc1)c1cc(OC[C@H]2CCCN2c2ccnc3ncnn23)c2ccccc2n1 [Compound A28]
11 | 1000 to 10000 | FC(F)(F)c1cccc(COC[C@H]2CCCN2c2ccnc3ncnn23)c1 [Compound A48]
12 | 10 to 1000 | CC(C)(C)OC(=O)N[C@H](CC#N)C(=O)N1CCc2cccc(OC[C@H]3CCCN3c3ccnc4ncnn34)c2C1 [Compound A39]
13 | 10 to 1000 | NCCCOC(=O)N1CCc2cccc(OC[C@H]3CCCN3c3ccnc4ncnn34)c2C1 [Compound A75]
14 | 10 to 1000 | CC(C)(C)OC(=O)N[C@H](CC(N)=O)C(=O)N1CCc2cccc(OC[C@H]3CCCN3c3ccnc4ncnn34)c2C1 [Compound A29]
15 | 10 to 1000 | Brc1cccc(COC[C@H]2CCCN2c2ccnc3ncnn23)c1 [Compound A66, 7-[(R)-2-(3-Bromobenzyloxymethyl)pyrrolidin-1-yl]-[1,2,4]triazolo[1,5-a]pyrimidine]
16 | 1000 to 10000 | c1cncc(COC[C@H]2CCCN2c2ccnc3ncnn23)c1 [Compound A56]
17 | 10 to 1000 | CC(=O)N1CCc2cccc(OC[C@H]3CCCN3c3ccnc4ncnn34)c2C1 [Compound A33]
18 | 1000 to 10000 | CC(C)(C)OC(=O)N1CCc2cccc(OC[C@H]3CCCN3c3ccnc4ncnn34)c2C1 [Compound A25]
19 | 1000 to 10000 | O=C1c2ccccc2C(=O)N1C[C@H]1CCCN1c1ccnc2ncnn12 [Compound A78]
20 | 10 to 1000 | c1cc(OC[C@H]2CCCN2c2ccnc3ncnn23)c2ccncc2c1 [Compound A17]
21 | 10 to 1000 | FC(F)(F)Oc1cccc(COC[C@H]2CCCN2c2ccnc3ncnn23)c1 [Compound A67, 7-[(R)-2-(3-Trifluoromethoxybenzyloxymethyl)-pyrrolidin-1-yl]-[1,2,4]triazolo[1,5-a]pyrimidine]
22 | > 10000 | c1cc(COC[C@H]2CCCN2c2ccnc3ncnn23)ccn1 [Compound A58]
23 | 10 to 1000 | O=C(OC[C@H]1CCCN1c1ccnc2ncnn12)c1cccc(CCl)c1 [Compound A74, (R)-1-[1,2,4]Triazolo[1,5-a]pyrimidin-7-yl-pyrrolidin-2-ylmethyl 3-chloromethylbenzoate]
24 | 10 to 1000 | O=C(OC[C@H]1CCCN1c1ccnc2ncnn12)c1cccnc1 [Compound A70]
25 | 10 to 1000 | O=C(OC[C@H]1CCCN1c1ccnc2ncnn12)c1cc(Cl)nc2ccccc12 [Compound A46]
26 | 10 to 1000 | c1ccc2c(OC[C@H]3CCCN3c3ccnc4ncnn34)nccc2c1 [Compound A16]

Row | IC50 [nM] | SMILES
27 | 10 to 1000 | COC(=O)c1ccc2[nH]c(COC[C@H]3CCCN3c3ccnc4ncnn34)cc2c1 [Compound A59]
28 | 10 to 1000 | CN(C)c1cccc(C(=O)OC[C@H]2CCCN2c2ccnc3ncnn23)c1 [Compound A50]
29 | 10 to 1000 | O=C(OC[C@H]1CCCN1c1ccnc2ncnn12)c1ccccn1 [Compound A69, (R)-1-[1,2,4]Triazolo[1,5-a]pyrimidin-7-yl-pyrrolidin-2-ylmethyl pyridine-2-carboxylate]
30 | 10 to 1000 | O=C(NCCCN1CCCC1=O)c1cc(OC[C@H]2CCCN2c2ccnc3ncnn23)c2ccccc2n1 [Compound A18]
31 | 10 to 1000 | O=C(NCc1ccccc1)c1cc(OC[C@H]2CCCN2c2ccnc3ncnn23)c2ccccc2n1 [Compound A22]
32 | 10 to 1000 | NCCCCN1CCc2cccc(OC[C@H]3CCCN3c3ccnc4ncnn34)c2C1 [Compound A41]
33 | 10 to 1000 | N#Cc1cccc(C(=O)OC[C@H]2CCCN2c2ccnc3ncnn23)c1 [Compound A79, (R)-1-[1,2,4]Triazolo[1,5-a]pyrimidin-7-yl-pyrrolidin-2-ylmethyl 3-cyanobenzoate]
34 | 10 to 1000 | CCOc1cccc(C(=O)OC[C@H]2CCCN2c2ccnc3ncnn23)c1 [Compound A72, (R)-1-[1,2,4]Triazolo[1,5-a]pyrimidin-7-yl-pyrrolidin-2-ylmethyl 3-ethoxybenzoate]
35 | 10 to 1000 | O=C(OC[C@H]1CCCN1c1ccnc2ncnn12)c1ccc(Cl)nc1 [Compound A61]
36 | 10 to 1000 | O=C(OC[C@H]1CCCN1c1ccnc2ncnn12)c1cc(Cl)ccc1F [Compound A73, (R)-1-[1,2,4]Triazolo[1,5-a]pyrimidin-7-yl-pyrrolidin-2-ylmethyl 5-chloro-2-fluorobenzoate]
37 | 10 to 1000 | NCCCCOC(=O)N1CCc2cccc(OC[C@H]3CCCN3c3ccnc4ncnn34)c2C1 [Compound A42]
38 | 10 to 1000 | CCOC(=O)c1n[nH]c(C)c1OC[C@H]1CCCN1c1ccnc2ncnn12 [Compound A19]
39 | 10 to 1000 | O=C(NCCc1c[nH]c2ccccc12)c1cc(OC[C@H]2CCCN2c2ccnc3ncnn23)c2ccccc2n1 [Compound A23]
40 | 10 to 1000 | CC(=O)N[C@@H](CC(N)=O)C(=O)N1CCc2cccc(OC[C@H]3CCCN3c3ccnc4ncnn34)c2C1 [Compound A32]
41 | 10 to 1000 | COc1cccc(C(=O)OC[C@H]2CCCN2c2ccnc3ncnn23)c1 [Compound A43]
42 | 10 to 1000 | O=C(NCc1ccc(F)cc1)c1cc(OC[C@H]2CCCN2c2ccnc3ncnn23)c2ccccc2n1 [Compound A11]
43 | 10 to 1000 | c1cc2c(c(OC[C@H]3CCCN3c3ccnc4ncnn34)c1)CNCC2 [Compound A27]
44 | 1000 to 10000 | Nc1nc2nccc(N3CCC[C@@H]3COc3cccc4ccccc34)n2n1 [Compound A80]
45 | 10 to 1000 | c1ccc2c(OC[C@H]3CCCN3c3ccnc4ncnn34)ccc(CNCCN3CCOCC3)c2c1 [Compound A20]
46 | 10 to 1000 | OC[C@H]1CCCN1c1ccnc2ncnn12 [Compound A83]
47 | 10 to 1000 | FC(F)(F)c1ccc2nccc(OC[C@H]3CCCN3c3ccnc4ncnn34)c2c1 [Compound A10]
48 | 10 to 1000 | O=C(OC[C@H]1CCCN1c1ccnc2ncnn12)c1cccc(Br)c1 [Compound A44]
49 | 10 to 1000 | NC(=O)C[C@@H](N)C(=O)N1CCc2cccc(OC[C@H]3CCCN3c3ccnc4ncnn34)c2C1 [Compound A36]
50 | 1000 to 10000 | O=S(=O)(NC[C@H]1CCCN1c1ccnc2ncnn12)c1ccc(F)cc1 [Compound A84]
51 | 10 to 1000 | FC(F)(F)Oc1ccc2nccc(OC[C@H]3CCCN3c3ccnc4ncnn34)c2c1 [Compound A9]

Row | SMILES | IC50 [nM]
52 | O=C(OC[C@H]1CCCN1c1ccnc2ncnn12)c1ccc(Oc2ccccc2)nc1 [Compound A64] | 10 to 1000
